{"source": "patent US8242058B2", "about": "“Reagents and methods for appending functional groups to proteins” (Wisconsin Alumni Research Foundation, priority 2006, dated 2012)", "molecules": {"B1": {"name": "wild-type RNase A: bovine pancreatic ribonuclease (RNase A), unmodified wild-type, Sigma Chemical (protein, UniProt P61823 27-150, looked up)", "Ribonuclease pancreatic": "KETAAAKFERQHMDSSTSAASSSNYCNQMMKSRNLTKDRCKPVNTFVHESLADVQAVCSQKNVACKNGQTNCYQSYSTMSITDCRETGSSKYPNCAYKTTQANKHIIVACEGNPYVPVHFDASV"}}, "key": {"[1]": {"assay": "Kinetics of thioester cleavage (release of thiophenolate, absorbance at 410 nm)", "settings": "for fold greater k1 value than ethyl amine / rate constants (k2 and k1) for thioester cleavage: pH 7.0, 25° C.; for fold greater k1 value than ethyl amine: pseudo-unimolecular conditions", "procedure": "To identify the optimal nitrogen nucleophile for a thioester, kinetic studies were performed on a model chromogenic thioester: AcGlySC6H4-p-NO2. The rate of release of the thiophenolate anion was monitored by measuring the change in absorbance at 410 nm (Scheme 1). Nitrogen nucleophiles with conjugate-acid pKa values ranging from 4.6 to 10.6 (Table 1) were used in the experiments. The logarithmic values of the second-order rate constants (k2) of the unprotonated primary amines were plotted against the pKa values of their conjugate acids to yield the Brønsted plot shown in FIG. 2A. The data were fitted to the equation^[26]: log k2=log(AB)+(β+β′)pKa−log(A10^βpK^a+B10^β′pK^a) (1) In eq 1, A and B are constants, β′ is the slope of the former part of the Brønsted plot, and β is the slope of the latter part.\nKinetics of thioester cleavage: AcGlySC6H4-p-NO2 was dissolved in anhydrous acetonitrile to a concentration of 0.45 mM and used immediately. Amine solutions (except CF3CH2NH2.HCl) were prepared by dissolving the amine hydrochloride salts in 0.10 M sodium phosphate buffer at pH 7.0 to a concentration of 0.15 M. Reaction mixtures were prepared in a 1,1-mL volume and equilibrated at 25° C. All reactions contained […] acetonitrile. The ionic strength of each reaction mixture was I=0.22-0.25. All reactions were carried out with a large excess of amine and followed pseudo-first-order kinetics. In a cuvette containing 0.10 M sodium phosphate buffer at pH 7.0 (967 μL), amine solution (0.15 M, 100 μL) was added and the absorbance at 410 nm was adjusted to zero. The thioester (33 μL of a 0.45 mM solution in acetonitrile) was then added to the cuvette, and the absorbance at 410 nm was monitored with time (ε=11,230 M^−1cm^−1 for p-nitrothiophenolate anion). […] This value is likely to be lower in an aqueous buffer, such that the ionization of the p-nitrothiophenol product is virtually complete in all our assays. The final concentration of the thioester in the reaction was 13.64 μM and the final concentration of the amines (except CF3CH2NH2.HCl) was 13.64 mM. Each reaction was performed in triplicate. The reactions were allowed to go to completion, and the t1/2 was determined from the kinetic trace. The t1/2 was corrected by subtracting the t1/2 for hydrolysis from the observed value. Pseudo-first-order rate constants were calculated by using the equation k1=0.693/t1/2. Second-order rate constants were obtained by dividing each observed first-order rate constant by the concentration of free amine. Logarithmic values of second-order rate constants were plotted against the pKa values of the conjugate acids of the respective amines to yield a Brønsted plot.\nUsing a higher buffer concentration was not ideal, as that would increase the ionic strength to a much value much larger than that in other reaction mixtures. To overcome these problems, the reaction with CF3CH2NH2 was carried out using 40.92 mM CF3CH2NH2.HCl and allowing the pH of the reaction mixture to decrease to 5.8. The observed t12 was corrected by subtracting the t12 for hydrolysis at pH 5.8. The second-order rate constant was calculated by accounting for the concentration of free amine at pH 5.8, and the resulting value was used in the Brønsted plot. The first-order rate constant thus obtained was not compared to those for the other nucleophiles."}, "[2]": {"settings": "cited from earlier work"}, "[3]": {"target": "T1, Met(−1)RNase A-Gly-mxe intein thioester (UniProt P20533+P61823)", "T1 construct": "made in house; host or cells: E. coli BL21 (DE3), plasmid pJK01", "T1 sequence (P61823+P20533 with tags, fused parts or gaps)": "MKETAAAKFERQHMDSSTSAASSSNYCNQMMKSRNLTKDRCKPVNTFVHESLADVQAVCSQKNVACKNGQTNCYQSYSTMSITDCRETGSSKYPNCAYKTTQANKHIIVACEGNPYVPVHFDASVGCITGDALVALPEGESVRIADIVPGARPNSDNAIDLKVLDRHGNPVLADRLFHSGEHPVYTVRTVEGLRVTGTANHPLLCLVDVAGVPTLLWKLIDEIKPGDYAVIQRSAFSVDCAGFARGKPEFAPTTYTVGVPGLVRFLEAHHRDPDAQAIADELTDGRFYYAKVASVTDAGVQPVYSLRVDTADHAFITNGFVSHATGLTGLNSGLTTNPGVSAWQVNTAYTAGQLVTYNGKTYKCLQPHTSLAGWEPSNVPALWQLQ", "assay": "On-resin cleavage of the intein fusion protein thioester", "settings": "on chitin resin", "source_text": "Next, we sought to use our bifunctional reagents to install an azido group at the C terminus of a model protein. As our protein, we chose bovine pancreatic ribonuclease (RNase A), which has been the object of much seminal work in protein chemistry and has been manipulated previously with expressed protein ligation. RNase A has valine as its C-terminal residue. A valine residue at the C terminus of a target protein is known to have a debilitating effect on the cleavage efficiency of protein-intein thioesters. To avert this problem, we inserted a glycine residue between the C terminus of RNase A and the intein. The resulting Met(−1)RNase A-Gly-mxe intein-chitin-binding domain fusion protein (MW ˜36 kDa) was produced in E. coli, and the cell lysate was loaded onto chitin resin. Azides 1 and 2 were used to induce the on-resin cleavage of the fusion protein. […] The purity of the azido-RNase A (even upon elution from the chitin column) was apparent from SDS-PAGE analysis (FIG. 3A); the integrity of the azido-RNase A was verified by using MALDI-TOF mass spectrometry (FIG. 3B). This procedure produced an overall yield of ˜1 mg of purified azido-RNase A per liter of E. coli culture. […]"}, "[4]": {"assay": "Storage stability of the reagent", "format": "physicochemical", "settings": "TFA salt, storage under vacuum", "source_text": "Azide 2 was synthesized by the route in Scheme 3. Briefly, 4-pentenoic acid was subjected to ozonolysis, and the resulting aldehyde was reacted in-situ with Boc-protected hydrazine. The azido group was installed by coupling 1-azido-2-aminoethane (4) to the carboxylic acid. The hydrazone was then reduced selectively with NaCNBH3. The Boc group was removed to produce azide 2 as its trifluoroacetic acid (TFA) salt with an overall yield of 26% (which includes the 80% yield for the synthesis of azide 3)."}, "[5]": {"tested_on": "6-carboxyfluorescein-dArU(dA)2-6-carboxytetramethylrhodamine", "assay": "RNase A activity assay on immobilized RNase A", "format": "biochemical", "settings": "chip overlaid with 10 μM protein, pH 6.0", "procedure": "RNase A activity assay on immobilized RNase A. A phosphinothioester chip was overlaid with azido-RNase A (10 μM in 5% DMF/H2O) for 15 min in Ar(g) atmosphere in an AtmosBag™ to immobilize RNase A via Staudinger ligation. The chip was rinsed with sodium phosphate buffer (25 mM) at pH 7.5 (2×20 mL) and then introduced into a vial containing 2-(N-Morpholino)ethanesulfonic acid buffer (0.1 M) at pH 6.0 (22 mL, containing 0.1 M NaCl). A fluorogenic substrate of RNase A, 6-carboxyfluorescein-dArU(dA)2-6-carboxytetramethylrhodamine (10 μl of a 40 μM solution), was introduced into the vial. The vial was placed on a shaker and 2 mL aliquots were withdrawn at various time intervals and the fluorescence measured (λex=493 nm, λem=515 nm). The fluorescence intensity was plotted against time. A phosphinothioester chip was overlaid with wt-RNase A (10 μM in 5% DMF/H2O) and rinsed with sodium phosphate buffer (25 mM) at pH 7.5 (2×20 mL) and a similar assay was performed. As a negative control, a similar assay was performed on a phosphinothioester chip which was not overlaid with RNase A. The percentage of the fluorescent substrate cleaved at various time intervals were subtracted from the corresponding values for the negative control to generate the graph in FIG. 8."}, "[6]": {"target": "T2, ribonuclease inhibitor protein (RI) (Homo sapiens, UniProt P13489)", "T2 sequence (P13489 2-461 limits assumed)": "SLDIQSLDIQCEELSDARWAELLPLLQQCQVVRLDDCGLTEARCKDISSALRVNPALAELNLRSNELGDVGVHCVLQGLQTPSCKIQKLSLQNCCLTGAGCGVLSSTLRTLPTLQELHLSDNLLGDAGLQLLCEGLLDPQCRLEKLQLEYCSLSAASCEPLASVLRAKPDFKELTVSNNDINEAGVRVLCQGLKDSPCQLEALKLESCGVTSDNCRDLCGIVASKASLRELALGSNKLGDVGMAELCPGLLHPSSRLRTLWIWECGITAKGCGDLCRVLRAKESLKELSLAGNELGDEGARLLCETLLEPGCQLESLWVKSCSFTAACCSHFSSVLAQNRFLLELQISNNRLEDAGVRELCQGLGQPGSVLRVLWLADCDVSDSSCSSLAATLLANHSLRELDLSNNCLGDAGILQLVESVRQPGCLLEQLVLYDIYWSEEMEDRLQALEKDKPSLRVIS", "assay": "RI binding to immobilized RNase A (immunoassay, ellipsometry)", "settings": "RI 10 μM, 10 min at 4° C.", "procedure": "RI binding to immobilized RNase A. Azido-RNase A (1 μL, 10 μM in 5% DMF/water) was spotted on phosphinothioester-displaying SAMs on a gold chip for 15 minutes at r.t. in an AtmosBag™ filled with Ar(g). The chip was taken out of the bag and rinsed with sodium phosphate buffer (25 mM) at pH 7.5 (2×20 mL) and incubated in the same buffer for 30 min to remove non-specifically bound RNase A. RI (10 μM in sodium phosphate buffer (25 mM) at pH 7.5 containing 10 mM DTT) was overlaid on the chip for 10 min at 4° C. The chip was then rinsed with sodium phosphate buffer (25 mM) at pH 7.5 containing 10 mM DTT (2×20 mL) and incubated in the same buffer for 15 min.\nDetection of RI bound to immobilized RNase A. (i) Immunoassay: After RI binding, the chip was overlaid with bovine serum albumin (2.0 mg/mL in sodium phosphate buffer (25 mM) at pH 7.5) for 15 min. The chip was rinsed with sodium phosphate buffer (25 mM) at pH 7.5 (2×20 mL) and subsequently incubated with chicken primary antibody to RI (12.5 μg/mL in sodium phosphate buffer (25 mM) at pH 7.5) for 15 min. […] The chip was scanned with a Genomic Solutions® GeneTac UC4×4 Fluorescence Scanner using a gain of 50. […]"}}}
{"molecule": "CCOC(=O)CNN", "note": "[C2H5O(O)CCH2NHNH2]", "values": [{"measurement": "fold greater k1 value than ethyl amine", "setting": "[1]", "result": 30, "unit": "fold"}, {"measurement": "pKa of conjugate acid", "setting": "[2]", "result": "6.45^[24]"}]}
{"molecule": "CCN", "note": "[CH3CH2NH2]", "values": [{"measurement": "nucleophilicity of unprotonated amines (k2, Brønsted plot)", "setting": "[1]; all amines deprotonated, 25° C.", "result": "best nucleophile"}, {"measurement": "pKa of conjugate acid", "setting": "[2]", "result": "10.63^[22]"}]}
{"molecule": "CNN", "note": "[CH3NHNH2]", "values": [{"measurement": "fold greater k1 value than ethyl amine", "setting": "[1]", "result": 100, "unit": "fold"}, {"measurement": "pKa of conjugate acid", "setting": "[2]", "result": "7.87^[25]"}]}
{"molecule": "COC(=O)CN", "note": "[CH3O(O)CCH2NH2]", "values": [{"measurement": "pKa of conjugate acid", "setting": "[2]", "result": "7.75^[22]"}]}
{"molecule": "CON", "note": "[CH3ONH2]", "values": [{"measurement": "pKa of conjugate acid", "setting": "[2]", "result": "4.60^[22]"}]}
{"molecule": "NCC(F)(F)F", "note": "[F3CCH2NH2]", "values": [{"measurement": "nucleophilicity at pH 7.0 (aminolysis versus hydrolysis)", "setting": "[1]; pH 7.0, standard reaction conditions", "result": "poor nucleophile"}, {"measurement": "pKa of conjugate acid", "setting": "[2]", "result": "5.40^[23]"}]}
{"molecule": "NCCO", "note": "[HOCH2CH2NH2]", "values": [{"measurement": "pKa of conjugate acid", "setting": "[2]", "result": "9.50^[22]"}]}
{"molecule": "[N-]=[N+]=NCCNC(=O)CNN", "note": "[azide 1, H2NNHCH2CONHCH2CH2N3]", "values": [{"measurement": "rate constants (k2 and k1) for thioester cleavage", "setting": "[1]", "result": "indistinguishable from those of the α-hydrazino acetyl group"}, {"measurement": "efficiency of cleaving the protein-intein thioester", "setting": "[3]", "result": "much more effective than azide 2"}]}
{"molecule": "CF3CO2H.H2NNHCH2CH2CH2CONHCH2CH2N3 [azide 2]", "values": [{"measurement": "rate constants (k2 and k1) for thioester cleavage", "setting": "[1]", "result": "much lower than those of methylhydrazine"}, {"measurement": "stability on storage", "setting": "[4]", "result": "unstable"}]}
{"molecule": "B1", "values": [{"measurement": "enzymatic activity of chip incubated with the protein (increase of fluorescence intensity)", "setting": "[5]", "result": "small enzymatic activity"}, {"measurement": "RI binding to chip incubated with the protein", "setting": "[6]", "result": "No RI binding was observed"}]}
